Laboratory results reported in PubChem BioAssay (NCI).
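96-well plates; 48 h exposure; 5 concentrations. Endpoints by linear interpolation between flanking doses. Not reached: highest tested concentration assigned. Abbreviation: GI50, concentration required for 50% inhibition of growth. TGI: total growth inhibition.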

What was measured:
Experiment in all cases: NCI tumour cell line growth inhibition, 48 h
[1] = tested on: SW-620 colon
[2] = tested on: KM12 colon
[3] = tested on: OVCAR-5 ovarian
[4] = tested on: MCF7 breast
[5] = tested on: SR leukemia
[6] = tested on: CAKI-1 renal
[7] = tested on: PC-3 prostate
[8] = tested on: SNB-75 CNS
[9] = tested on: HCT-15 colon
[10] = tested on: HCT-116 colon

SMILES | TGI [1] [µM] | TGI [2] [µM] | TGI [3] [µM] | TGI [4] [µM] | TGI [5] [µM] | TGI [6] [µM] | TGI [7] [µM] | TGI [8] [µM] | TGI [9] [µM] | TGI [10] [µM] | GI50 [1] [µM] | GI50 [2] [µM] | GI50 [3] [µM] | GI50 [4] [µM] | GI50 [5] [µM] | GI50 [6] [µM] | GI50 [7] [µM] | GI50 [8] [µM] | GI50 [9] [µM] | GI50 [10] [µM]
C=C(C)C(=O)OC1CC2(C)OC2CC(OC(C)=O)/C(C)=C/C2OC(=O)C(=C)C21 (stereo not given) | 6.98 | 33.7 | 17.5 | 12.2 | 4.47 | 9.84 | 22.5 | 42.3 | 1.86 | 3.61 | – | – | – | – | – | – | – | – | – | –
CC1=C(C(=O)Nc2ccc3[nH]ncc3c2)C(c2ccc(F)cc2)NC(=O)N1 (stereo not given) | > 25 | > 25 | > 25 | > 25 | > 25 | > 25 | > 25 | > 25 | > 25 | > 25 | > 25 | > 25 | > 25 | > 25 | 19.2 | > 25 | > 25 | 6.51 | > 25 | > 25
N#Cc1c2ccccc2c2n1-c1ccccc1OC(c1ccccc1)C2=O (stereo not given) | 16.7 | 10.8 | 34 | 14.6 | 15.6 | 13.7 | 13.5 | 11.9 | 12.5 | 12.4 | 3.9 | 3.32 | 5.37 | 3.8 | 3.69 | 3.16 | 2.77 | 2.23 | 3.12 | 2.84
COc1cc(C(=O)/C=C/c2c(-c3ccc(F)cc3)nc3sc(C)cn23)cc(OC)c1OC | > 100 | > 100 | > 100 | > 100 | > 100 | 53.1 | > 100 | > 100 | > 100 | > 100 | 5.34 | 3.63 | > 100 | 1.81 | 0.802 | 1.78 | 2.41 | 50.1 | 3.75 | 2.92
N#Cc1cccc(C(=O)c2cnn(-c3ccc(F)cc3)c2N)c1 | > 25 | > 25 | > 25 | > 25 | > 25 | > 25 | > 25 | > 22.4 | > 25 | > 25 | > 25 | > 25 | > 25 | > 25 | > 25 | > 25 | > 25 | > 11.5 | > 25 | > 25
O=[N+]([O-])c1cc(O)c(O)cc1-c1cn2ccsc2n1 | > 100 | > 100 | > 100 | > 100 | > 100 | > 100 | > 100 | > 100 | > 100 | > 100 | 45.6 | 40.4 | > 100 | 52.7 | 41.3 | 38.4 | 63.4 | > 100 | 38.5 | 31.1
O=C(Nc1ncc(Cc2ccccc2)s1)c1ccc2c(c1)OCCCO2 | > 100 | > 100 | > 100 | > 100 | > 100 | > 100 | > 100 | > 29.3 | > 100 | > 100 | 0.444 | 0.372 | 11.5 | 0.374 | 0.299 | 0.526 | 0.927 | 0.613 | 0.376 | 0.468
CCN(CC)c1ccc(N=C2C=C(C(=O)Nc3ccc(S(C)(=O)=O)cc3)C(=O)c3ccccc32)c(C)c1 | > 100 | > 100 | > 100 | > 100 | > 100 | > 100 | > 100 | > 100 | > 100 | > 100 | > 100 | 1.03 | > 100 | > 100 | 2.08 | 81 | 1.05 | 3.08 | 5.28 | 12.6
O=C(Nc1ccc(Cl)cc1)c1cc2c(cc1O)[nH]c1ccccc12 | 13.4 | 7.27 | 16.2 | 10 | 31.6 | 6.02 | 22.8 | 8.78 | 13.1 | 10.3 | 3.4 | 2.89 | 3.72 | 2.56 | 3.44 | 2.26 | 3.96 | 3.23 | 3.24 | 2.95
NC1C2C(CC(=O)O)OCC=C3CN4CCC1(C(=O)C(=O)O)C4CC32 (stereo not given) | > 100 | > 100 | > 100 | > 100 | > 100 | > 100 | > 100 | > 100 | > 100 | > 100 | – | – | – | – | – | – | – | – | – | –
